Measurements reported in US20120122860A1, “SOLID FORMS OF SULFONAMIDES AND AMINO ACIDS” (Plexxikon, Inc., priority 2009, published 2012).

Columns and labels:
[1] = target: T1, A-Raf (Homo sapiens, UniProt P10398); test: Kinase activity assay, A-Raf
T1 sequence (P10398 1-606): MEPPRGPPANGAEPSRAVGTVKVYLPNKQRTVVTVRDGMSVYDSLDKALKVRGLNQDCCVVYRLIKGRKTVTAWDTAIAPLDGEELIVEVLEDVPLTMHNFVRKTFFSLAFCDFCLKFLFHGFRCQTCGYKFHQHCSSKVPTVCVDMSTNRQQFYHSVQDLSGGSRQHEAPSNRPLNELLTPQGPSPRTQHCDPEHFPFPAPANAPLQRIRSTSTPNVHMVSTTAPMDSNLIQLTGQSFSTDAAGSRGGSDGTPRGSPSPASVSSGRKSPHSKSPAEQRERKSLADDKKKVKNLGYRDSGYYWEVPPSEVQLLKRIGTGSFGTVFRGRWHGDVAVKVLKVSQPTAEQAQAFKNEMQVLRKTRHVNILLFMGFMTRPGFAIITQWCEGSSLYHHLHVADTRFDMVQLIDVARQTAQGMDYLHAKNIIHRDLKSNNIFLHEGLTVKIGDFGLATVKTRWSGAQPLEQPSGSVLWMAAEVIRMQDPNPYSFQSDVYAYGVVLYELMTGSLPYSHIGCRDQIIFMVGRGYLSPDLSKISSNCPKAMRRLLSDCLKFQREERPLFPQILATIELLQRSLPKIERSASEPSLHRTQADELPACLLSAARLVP

[2] = target: B-Raf (Homo sapiens, UniProt P15056); test: Kinase activity assay, B-Raf; format: biochemical; settings: read-out: activity toward kinase B-Raf, IC50
[3] = target: C-Raf (Homo sapiens, UniProt P04049); test: Kinase activity assay, C-Raf
[4] = target: Src (Homo sapiens, UniProt P12931); test: Kinase activity assay, Src
[5] = target: B-Raf V600E (Homo sapiens, UniProt P15056, V600E); test: Kinase activity assay, B-Raf V600E; format: biochemical; settings: read-out: activity toward kinase B-Raf V600E, IC50
[6] = target: Kit (Homo sapiens, UniProt P10721); test: Kinase activity assay, Kit
[7] = target: Kdr (Homo sapiens, UniProt P35968); test: Kinase activity assay, Kdr

Measured: IC50

B-Raf V600E, sequence (P15056 whole entry V600E): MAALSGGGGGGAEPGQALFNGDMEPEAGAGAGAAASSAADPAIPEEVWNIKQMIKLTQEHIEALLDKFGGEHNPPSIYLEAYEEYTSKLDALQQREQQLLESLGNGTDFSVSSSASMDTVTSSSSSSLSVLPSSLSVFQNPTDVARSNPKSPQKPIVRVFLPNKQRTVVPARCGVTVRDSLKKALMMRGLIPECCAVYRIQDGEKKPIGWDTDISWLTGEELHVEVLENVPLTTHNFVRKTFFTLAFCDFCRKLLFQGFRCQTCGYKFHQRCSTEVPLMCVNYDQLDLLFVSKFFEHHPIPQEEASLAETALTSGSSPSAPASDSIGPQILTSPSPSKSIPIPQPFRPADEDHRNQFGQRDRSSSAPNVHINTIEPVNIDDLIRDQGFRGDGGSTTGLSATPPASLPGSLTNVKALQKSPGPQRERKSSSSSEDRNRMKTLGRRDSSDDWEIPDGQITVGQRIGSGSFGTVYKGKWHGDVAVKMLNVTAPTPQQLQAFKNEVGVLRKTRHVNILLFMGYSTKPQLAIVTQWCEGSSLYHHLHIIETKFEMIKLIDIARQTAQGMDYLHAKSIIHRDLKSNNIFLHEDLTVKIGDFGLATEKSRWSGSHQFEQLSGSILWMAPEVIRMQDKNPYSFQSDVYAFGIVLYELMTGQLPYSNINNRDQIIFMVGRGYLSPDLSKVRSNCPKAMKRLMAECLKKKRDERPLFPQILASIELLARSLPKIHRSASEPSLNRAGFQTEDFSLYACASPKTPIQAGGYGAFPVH
Kit, sequence (P10721 26-976): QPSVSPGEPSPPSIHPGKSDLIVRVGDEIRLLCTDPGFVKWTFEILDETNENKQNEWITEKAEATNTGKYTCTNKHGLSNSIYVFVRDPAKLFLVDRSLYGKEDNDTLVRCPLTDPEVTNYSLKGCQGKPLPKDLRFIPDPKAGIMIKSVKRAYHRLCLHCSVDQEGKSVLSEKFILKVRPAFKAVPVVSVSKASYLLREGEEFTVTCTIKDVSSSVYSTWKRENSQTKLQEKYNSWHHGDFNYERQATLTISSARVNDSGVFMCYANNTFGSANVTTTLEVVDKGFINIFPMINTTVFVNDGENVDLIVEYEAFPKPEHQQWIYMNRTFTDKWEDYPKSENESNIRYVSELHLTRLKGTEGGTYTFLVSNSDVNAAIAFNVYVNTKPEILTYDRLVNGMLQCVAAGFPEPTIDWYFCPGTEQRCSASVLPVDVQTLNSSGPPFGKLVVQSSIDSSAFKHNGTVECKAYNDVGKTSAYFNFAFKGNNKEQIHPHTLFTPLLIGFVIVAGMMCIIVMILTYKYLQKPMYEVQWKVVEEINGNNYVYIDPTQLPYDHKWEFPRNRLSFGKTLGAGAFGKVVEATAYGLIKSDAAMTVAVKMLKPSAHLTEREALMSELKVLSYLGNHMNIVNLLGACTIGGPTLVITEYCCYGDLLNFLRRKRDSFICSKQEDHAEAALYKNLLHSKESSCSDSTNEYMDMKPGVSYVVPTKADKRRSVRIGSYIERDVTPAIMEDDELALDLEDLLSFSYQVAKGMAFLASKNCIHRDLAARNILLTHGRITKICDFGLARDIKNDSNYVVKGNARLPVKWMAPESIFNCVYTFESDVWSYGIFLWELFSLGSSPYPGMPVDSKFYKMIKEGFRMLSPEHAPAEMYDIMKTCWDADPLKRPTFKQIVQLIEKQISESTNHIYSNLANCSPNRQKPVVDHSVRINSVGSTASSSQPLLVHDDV
Src, sequence (P12931 whole entry): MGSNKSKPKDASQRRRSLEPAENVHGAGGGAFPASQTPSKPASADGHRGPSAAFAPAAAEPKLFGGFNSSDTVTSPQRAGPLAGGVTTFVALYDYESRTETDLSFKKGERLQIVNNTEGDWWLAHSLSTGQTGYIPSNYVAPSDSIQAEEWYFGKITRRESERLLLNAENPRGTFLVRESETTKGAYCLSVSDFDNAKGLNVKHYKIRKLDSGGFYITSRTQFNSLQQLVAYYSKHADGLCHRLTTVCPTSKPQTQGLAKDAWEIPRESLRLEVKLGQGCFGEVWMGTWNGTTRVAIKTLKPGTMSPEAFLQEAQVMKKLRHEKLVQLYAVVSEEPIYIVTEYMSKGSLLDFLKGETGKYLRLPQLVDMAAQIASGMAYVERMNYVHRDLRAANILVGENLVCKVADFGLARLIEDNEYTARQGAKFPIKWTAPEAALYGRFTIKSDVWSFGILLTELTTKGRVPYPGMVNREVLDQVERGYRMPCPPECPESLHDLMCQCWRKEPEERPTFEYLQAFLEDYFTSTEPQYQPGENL
C-Raf, sequence (P04049 whole entry): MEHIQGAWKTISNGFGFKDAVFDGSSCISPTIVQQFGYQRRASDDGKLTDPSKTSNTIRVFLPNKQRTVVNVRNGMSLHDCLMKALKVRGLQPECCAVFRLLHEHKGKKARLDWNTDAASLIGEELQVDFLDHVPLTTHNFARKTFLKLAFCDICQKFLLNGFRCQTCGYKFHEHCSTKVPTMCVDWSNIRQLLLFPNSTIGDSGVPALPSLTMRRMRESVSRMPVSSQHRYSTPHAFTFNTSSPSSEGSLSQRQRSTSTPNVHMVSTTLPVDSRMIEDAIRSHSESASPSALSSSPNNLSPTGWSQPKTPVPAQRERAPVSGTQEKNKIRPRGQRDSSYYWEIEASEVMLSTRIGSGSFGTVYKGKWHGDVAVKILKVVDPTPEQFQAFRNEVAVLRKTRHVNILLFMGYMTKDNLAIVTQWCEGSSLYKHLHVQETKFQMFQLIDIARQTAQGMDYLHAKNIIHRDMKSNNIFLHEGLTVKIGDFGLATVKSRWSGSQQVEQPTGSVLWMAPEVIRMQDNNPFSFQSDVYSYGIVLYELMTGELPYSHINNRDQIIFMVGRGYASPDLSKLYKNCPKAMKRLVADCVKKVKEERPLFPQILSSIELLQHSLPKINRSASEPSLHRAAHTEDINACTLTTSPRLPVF
Kdr, sequence (P35968 20-1356): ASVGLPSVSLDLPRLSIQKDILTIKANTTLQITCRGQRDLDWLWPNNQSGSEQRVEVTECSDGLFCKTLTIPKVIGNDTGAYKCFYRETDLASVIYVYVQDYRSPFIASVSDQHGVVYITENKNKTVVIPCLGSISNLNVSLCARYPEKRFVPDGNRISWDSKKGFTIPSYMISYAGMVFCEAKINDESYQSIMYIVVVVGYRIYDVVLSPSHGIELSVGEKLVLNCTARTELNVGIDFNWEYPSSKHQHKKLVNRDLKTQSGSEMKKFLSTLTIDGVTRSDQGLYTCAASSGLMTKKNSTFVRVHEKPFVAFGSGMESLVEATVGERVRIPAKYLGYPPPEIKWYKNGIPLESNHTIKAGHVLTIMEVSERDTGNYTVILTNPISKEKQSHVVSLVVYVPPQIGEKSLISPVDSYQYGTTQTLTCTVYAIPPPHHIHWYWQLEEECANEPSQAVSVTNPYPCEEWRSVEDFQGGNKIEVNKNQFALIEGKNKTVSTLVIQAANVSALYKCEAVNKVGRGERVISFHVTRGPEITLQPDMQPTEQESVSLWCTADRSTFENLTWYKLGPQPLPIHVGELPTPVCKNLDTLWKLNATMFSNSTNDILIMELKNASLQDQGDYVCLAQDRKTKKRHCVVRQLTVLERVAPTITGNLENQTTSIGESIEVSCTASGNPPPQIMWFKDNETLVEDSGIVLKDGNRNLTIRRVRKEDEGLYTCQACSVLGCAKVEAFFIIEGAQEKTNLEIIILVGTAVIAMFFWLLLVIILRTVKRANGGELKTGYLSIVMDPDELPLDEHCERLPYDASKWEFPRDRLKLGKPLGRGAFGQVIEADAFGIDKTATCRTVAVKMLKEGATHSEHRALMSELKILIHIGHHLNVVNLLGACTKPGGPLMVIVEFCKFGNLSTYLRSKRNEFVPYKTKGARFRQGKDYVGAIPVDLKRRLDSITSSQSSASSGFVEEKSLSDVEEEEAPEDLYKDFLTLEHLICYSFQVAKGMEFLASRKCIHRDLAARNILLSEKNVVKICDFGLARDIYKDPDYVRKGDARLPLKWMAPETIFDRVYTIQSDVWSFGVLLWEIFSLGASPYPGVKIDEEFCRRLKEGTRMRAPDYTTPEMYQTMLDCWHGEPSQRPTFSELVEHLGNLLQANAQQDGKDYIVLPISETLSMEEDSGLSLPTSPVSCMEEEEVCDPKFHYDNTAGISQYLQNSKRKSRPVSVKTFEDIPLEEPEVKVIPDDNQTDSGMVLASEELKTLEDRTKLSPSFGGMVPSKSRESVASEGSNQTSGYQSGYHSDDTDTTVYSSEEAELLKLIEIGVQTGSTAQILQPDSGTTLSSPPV
B-Raf, sequence (P15056 whole entry): as the sequence (P15056 whole entry V600E) above, with E600V counted along it

N#Cc1ccnc2[nH]cc(C(=O)c3c(F)ccc(NS(=O)(=O)c4c(F)cccc4F)c3F)c12 [P-2037, N-[3-(4-Cyano-1H-pyrrolo[2,3-b]pyridine-3-carbonyl)-2,4-difluoro-phenyl]-2,6-difluoro-benzenesulfonamide]
≤ 10 µM: all assays above

N#Cc1ccnc2[nH]cc(C(=O)c3c(F)ccc(NS(=O)(=O)c4ccc(F)cc4F)c3F)c12 [P-2038, N-[3-(4-Cyano-1H-pyrrolo[2,3-b]pyridine-3-carbonyl)-2,4-difluoro-phenyl]-2,4-difluoro-benzenesulfonamide]
≤ 10 µM: all assays above

N#Cc1ccnc2[nH]cc(C(=O)c3c(F)ccc(NS(=O)(=O)c4cccc(F)c4)c3F)c12 [P-2039, N-[3-(4-Cyano-1H-pyrrolo[2,3-b]pyridine-3-carbonyl)-2,4-difluoro-phenyl]-3-fluoro-benzenesulfonamide]
not listed: [7]
≤ 10 µM: all other assays above

CCCS(=O)(=O)Nc1ccc(F)c(C(=O)c2c[nH]c3nccc(C#N)c23)c1F [P-2209, Propane-1-sulfonic acid [3-(4-cyano-1H-pyrrolo[2,3-b]pyridine-3-carbonyl)-2,4-difluoro-phenyl]-amide]
≤ 10 µM: all assays above

CC(C)CS(=O)(=O)Nc1ccc(F)c(C(=O)c2c[nH]c3nccc(Cl)c23)c1F [P-2318, 2-Methyl-propane-1-sulfonic acid [3-(4-chloro-1H-pyrrolo[2,3-b]pyridine-3-carbonyl)-2,4-difluoro-phenyl]-amide]
not listed: [7]
≤ 10 µM: all other assays above

N#Cc1ccnc2[nH]cc(C(=O)c3c(F)ccc(NS(=O)(=O)CC(F)(F)F)c3F)c12 [P-2341, 2,2,2-Trifluoro-ethanesulfonic acid [3-(4-cyano-1H-pyrrolo[2,3-b]pyridine-3-carbonyl)-2,4-difluoro-phenyl]-amide]
not listed: [7]
≤ 10 µM: all other assays above

Cc1cnc2[nH]cc(C(=O)c3c(F)ccc(NS(=O)(=O)C4CCCC4)c3F)c2c1 [P-2365, Cyclopentanesulfonic acid [2,4-difluoro-3-(5-methyl-1H-pyrrolo[2,3-b]pyridine-3-carbonyl)-phenyl]-amide]
not listed: [2]
≤ 10 µM: all other assays above

N#Cc1ccnc2[nH]cc(C(=O)c3c(F)ccc(NS(=O)(=O)C4CCCCC4)c3F)c12 [P-2369, Cyclohexanesulfonic acid [3-(4-cyano-1H-pyrrolo[2,3-b]pyridine-3-carbonyl)-2,4-difluoro-phenyl]-amide]
not listed: [7]
≤ 10 µM: all other assays above

N#Cc1cnc2[nH]cc(C(=O)c3c(F)ccc(NS(=O)(=O)N4CCOCC4)c3F)c2c1 [P-2393, Morpholine-4-sulfonic acid [3-(5-cyano-1H-pyrrolo[2,3-b]pyridine-3-carbonyl)-2,4-difluoro-phenyl]-amide]
not listed: [7]
≤ 10 µM: all other assays above
